Laboratory results as given in ChEMBL document CHEMBL1201862, “PubChem BioAssay data set” (2004).
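Tested at 5 concentrations; 48 h exposure; 96-well plates; endpoints linearly interpolated, else capped at highest concentration. GI50 marks 50% less growth.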 Activity calls are given as the source filed them. Cut-off read from the data, not from the text of the source: active = GI50 up to about 1.1 µM and inactive = higher.

How the values were obtained:
Test in all cases: DTP human tumour cell line panel, 48 h
[1] = tested on: CAKI-1
[2] = tested on: EKVX
[3] = tested on: HCC 2998
[4] = tested on: HCT-116
[5] = tested on: NCI-H522
[6] = tested on: OVCAR-3
[7] = tested on: RXF 393
[8] = tested on: SF-295
[9] = tested on: SK-MEL-2
[10] = tested on: SN12C
[11] = tested on: SR
[12] = tested on: U-251
[13] = tested on: UO-31
[14] = tested on: Malme-3M
[15] = tested on: NCI-H226
[16] = tested on: OVCAR-5
[17] = tested on: SNB-75

Measured: GI50

Cc1cc(NCCCCCCCCNc2cc(C)nc3cc(N(C)C)ccc23)c2ccc(N(C)C)cc2n1
inactive: [1] 24.3 µM | [2] 7.1 µM | [3] 4.3 µM | [4] 3.4 µM | [5] 2.75 µM | [6] 3.86 µM | [7] 12.9 µM | [8] 8.65 µM | [9] 5.13 µM | [10] 1.64 µM | [11] 2.82 µM | [12] 1.56 µM | [13] 75.5 µM

NNC(=O)C(=O)N/N=C1\CCC(=O)CC1C(=O)CCC(=O)Nc1ccc(Cl)cc1 (stereo not given)
inactive: [1] > 100 µM | [2] > 100 µM | [3] > 100 µM | [4] > 100 µM | [14] > 100 µM | [15] > 100 µM | [6] 95.3 µM | [16] > 100 µM | [7] 72.4 µM | [8] > 100 µM | [9] > 100 µM | [10] > 100 µM | [17] 39.4 µM | [12] > 100 µM | [13] > 100 µM

S=C(Nc1ccccc1)Nc1[nH]c(=S)sc1-c1nc2ccccc2[nH]1
inactive: [1] 94 µM | [2] 75.9 µM | [3] > 100 µM | [14] 43 µM | [15] 12.2 µM | [5] 62.4 µM | [6] 30.6 µM | [16] > 100 µM | [7] > 100 µM | [8] 41.9 µM | [9] 38.4 µM | [10] > 100 µM | [17] 38.5 µM | [12] 80 µM | [13] > 100 µM

O=C(c1ccncc1)n1nc(-c2ccccc2)c(/N=N/c2ccccc2[N+](=O)[O-])c1-c1ccccc1
inactive: [1] 63.8 µM | [2] 9.04 µM | [3] 34.7 µM | [4] 44.3 µM | [14] > 100 µM | [5] 56 µM | [6] 45 µM | [8] 32.1 µM | [9] > 100 µM | [10] > 100 µM | [17] 15.7 µM | [11] 36.6 µM | [13] 9.62 µM

COc1cc(C(O)C(=O)c2cnc3cc([N+](=O)[O-])ccc3n2)ccc1O (stereo not given)
inactive: [1] > 100 µM | [2] 72.3 µM | [3] > 100 µM | [4] > 100 µM | [14] > 100 µM | [7] 64.1 µM | [8] > 100 µM | [9] > 100 µM | [10] > 100 µM | [17] > 100 µM | [11] > 100 µM | [12] > 100 µM | [13] > 100 µM

O=C(Cc1nc2c3c(ccc2nc1O)C(=O)c1ccccc1C3=O)C(=O)Nc1ccccc1[N+](=O)[O-]
inactive: [1] 21.5 µM | [2] 17.5 µM | [3] 19.1 µM | [4] 26.6 µM | [14] 19.1 µM | [15] 20.6 µM | [5] 5.27 µM | [6] 11.5 µM | [16] 21.5 µM | [8] > 10 µM | [9] 19.1 µM | [10] > 10 µM | [11] 11.7 µM | [12] 17.7 µM | [13] 27.5 µM

Cc1ccc(NC(=O)C(=O)CC(=O)C2CCOC2=O)c(C)c1 (stereo not given)
inactive: [1] > 100 µM | [2] > 100 µM | [3] > 100 µM | [4] > 100 µM | [14] > 100 µM | [15] > 100 µM | [5] > 100 µM | [6] > 100 µM | [16] > 100 µM | [7] > 100 µM | [8] > 100 µM | [9] > 100 µM | [10] > 100 µM | [17] 76.2 µM | [12] > 100 µM | [13] > 100 µM

C/C(CC(=O)Nc1cc(C)ccc1C)=N\NC(=O)c1ccncc1
inactive: [2] > 100 µM | [3] > 100 µM | [4] > 100 µM | [14] > 100 µM | [15] > 100 µM | [5] 78 µM | [6] > 100 µM | [16] > 100 µM | [7] > 100 µM | [8] > 100 µM | [9] > 100 µM | [17] > 100 µM | [12] > 100 µM | [13] > 100 µM

COc1cc2c(cc1OC(=O)CC(C)O)C1C(OC2=O)C(OC(C)=O)C=C2CCN(C)[C@H]21 (stereo not given in full)
inactive: [1] 71.1 µM | [2] 65.8 µM | [3] 26.2 µM | [4] 58.7 µM | [15] 27.5 µM | [5] 97.7 µM | [6] 38.4 µM | [16] > 100 µM | [8] 20.7 µM | [9] 15.9 µM | [10] 38.6 µM | [17] 16.1 µM | [11] 74.5 µM | [12] 24.2 µM | [13] 47 µM

C=C1C2CC(OC(C)=O)C3(C)C(c4ccoc4)OC(=O)[C@@H](O)[C@]13OC1C[C@H](OC(C)=O)C(C)(C)[C@H](C(O)C(=O)OC)[C@]12C (stereo not given in full)
inactive: [2] > 100 µM | [3] > 100 µM | [4] > 100 µM | [15] > 100 µM | [6] > 100 µM | [8] > 100 µM | [9] > 100 µM | [10] > 100 µM | [17] 29.9 µM | [12] > 100 µM | [13] > 100 µM
